These results are taken from patent US12344610B2, “APOL1 inhibitors and methods of use” (Maze Therapeutics, Inc., priority 2022, dated 2025).

The structures appear in SMILES notation.

What is called EC50 is the concentration needed to bring the measured effect to its halfway point. Usually AC50 stands for the concentration giving half of the maximal activity seen.

The subject of assay [1] is HEK293 cells overexpressing APOL1 G2. Put plainly: APOL1 G2 HEK293 cell rescue assay (reversal of cell death caused by overexpression of APOL1). The format is cell-based. The settings on record: Homo sapiens, HEK293, HEK293 overexpressing APOL1 G2; geometric mean of at least 2 assay runs; † = single assay run. Summed up:
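EC50 is the half-maximal effective concentration for reversing cell death driven by APOL1 G2 overexpression in HEK293 cells. Reported as geometric mean of at least 2 runs on separate days, each run averaging duplicate wells per plate; some values from a single run.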

The target in the next assay is T1, APOL1 G2 (Homo sapiens, UniProt O14791, DEL388-389).
T1 construct: expressed in transfected cells; host or cells: HEK293 T-REx clonal line stably expressing GCaMP6f (HEK T-REx/GCaMP6f/APOL1 G2 K6.3), doxycycline induced
T1 sequence (O14791 with tags, fused parts or gaps DEL388-389): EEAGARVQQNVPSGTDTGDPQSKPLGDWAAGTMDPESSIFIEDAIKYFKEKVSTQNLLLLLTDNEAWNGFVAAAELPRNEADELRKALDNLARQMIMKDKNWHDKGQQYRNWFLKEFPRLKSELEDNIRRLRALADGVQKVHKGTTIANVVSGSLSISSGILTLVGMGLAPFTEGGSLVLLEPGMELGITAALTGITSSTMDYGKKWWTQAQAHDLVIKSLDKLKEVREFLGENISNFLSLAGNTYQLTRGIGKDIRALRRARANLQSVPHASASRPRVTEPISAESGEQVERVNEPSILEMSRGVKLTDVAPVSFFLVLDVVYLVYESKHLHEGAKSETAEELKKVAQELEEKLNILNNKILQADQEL
The experiment in a line: APOL1-mediated calcium transport (calcium influx) assay, HEK T-REx/GCaMP6f/APOL1 G2 K6.3 cells, FLIPR TETRA. The format is cell-based. The settings on record: prevention of calcium influx; geometric mean of at least 2 assay runs; † = average of a technical replicate from a single assay run. Summed up: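 A HEK293 T-REx clone stably expressing GCaMP6f had APOL1 G2 induced with doxycycline (20 ng/mL solution added) for 6 h. Cells were then washed into Ca2+-free Tyrode's buffer (pH 7.4) and preincubated with compounds (duplicate 8-point) for 10 min at room temperature. Ca2+ injection to 5 mM final produced FLIPR GCaMP fluorescence, giving AC50 for influx inhibition (geometric mean, ≥2 runs).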

Consider `CC(C)(O)c1ncc(OCCN2CCC3(CC2)C(=O)Nc2ccc(Cl)cc23)cc1C(F)(F)F` [Compound 371, 5-chloro-1′-(2-{[6-(2-hydroxypropan-2-yl)-5-(trifluoromethyl)pyridin-3-yl]oxy}ethyl)-1,2-dihydrospiro[indole-3,4′-piperidin]-2-one], for which the EC50 in assay [1] turned out to be 17.2 nM. The AC50 on APOL1 G2 was 504 nM.

On to `C[C@]1(O)C[C@@H](n2c(=O)oc3cc(OCCN4CCC5(CC4)C(=O)Nc4ccc(Cl)cc45)cnc32)C1` [Compound 394, 5-chloro-1′-[2-({2-oxo-3-[(cis)-3-hydroxy-3-methylcyclobutyl]-2H,3H-[1,3]oxazolo[4,5-b]pyridin-6-yl}oxy)ethyl]-1,2-dihydrospiro[indole-3,4′-piperidin]-2-one], for which, in assay [1], the EC50 turned out to be 24 nM. The AC50 on APOL1 G2 amounted to 250 nM.

As for `O=C1Nc2ccc(Cl)cc2C12CCN(CCOc1cnc(N3CC4(CC(O)C4)C3)nc1)CC2` [Compound 396, 5-chloro-1′-{2-[(2-{6-hydroxy-2-azaspiro[3.3]heptan-2-yl}pyrimidin-5-yl)oxy]ethyl}-1,2-dihydrospiro[indole-3,4′-piperidin]-2-one], the EC50 in assay [1] was found to be 40.5 nM. Also, the half-maximal activity concentration (AC50) at APOL1 G2 was 531 nM.

Regarding `CCC1(O)CN(c2ncc(OCCN3CCC4(CC3)C(=O)Nc3ccc(Cl)cc34)cn2)C1` [Compound 397, 5-chloro-1′-(2-{[2-(3-ethyl-3-hydroxyazetidin-1-yl)pyrinlidin-5-yl]oxy}ethyl)-1,2-dihydrospiro[indole-3,4′-piperidin]-2-one], the EC50 in assay [1] is 45.9 nM. Further, the AC50 on APOL1 G2 amounted to 416 nM.

Regarding `CC(CO)(c1ncc(OCCN2CCC3(CC2)C(=O)Nc2ccc(Cl)cc23)cc1C(F)(F)F)S(C)(=O)=O` (stereo not shown) [Compound 401, 5-chloro-1′-(2-{[6-(1-hydroxy-2-methanesulfonylpropan-2-yl)-5-(trifluoromethyl)pyridin-3-yl]oxy}ethyl)-1,2-dihydrospiro[indole-3,4′-piperidin]-2-one], in assay [1], the EC50 is 36.7 nM. On APOL1 G2, the AC50 came to 603 nM.

For the compound `C[C@]1(O)C[C@@H](n2ccc3cc(OCCN4CCC5(CC4)C(=O)Nc4ccc(C#N)cc45)cnc32)C1` [Compound 410, 2-oxo-1′-[2-({1-[(cis)-3-hydroxy-3-methylcyclobutyl]-1H-pyrrolo[2,3-b]pyridin-5-yl}oxy)ethyl]-1,2-dihydrospiro[indole-3,4′-piperidine]-5-carbonitrile], the EC50 in assay [1] is 64.1 nM. The AC50 at APOL1 G2 stood at 623 nM.

For the compound `CC(C)(O)c1ncc(OCCN2CCC3(CC2)C(=O)Nc2ccc(C#N)cc23)cc1C(F)(F)F` [Compound 411, 1′-(2-{[6-(2-hydroxypropan-2-yl)-5-(trifluoromethyl)pyridin-3-yl]oxy}ethyl)-2-oxo-1,2-dihydrospiro[indole-3,4′-piperidine]-5-carbonitrile], the EC50 in assay [1] is 22.6 nM. In addition, the AC50 on APOL1 G2 was 436 nM.

On to `[2H]C([2H])(Oc1cnc2c(c1)CCC(=O)N2[C@H]1C[C@@](C)(O)C1)C([2H])([2H])N1CCC2(CC1)C(=O)Nc1ccc(Cl)cc12` [Compound 426, 5-chloro-1′-[2-({7-oxo-8-[(cis)-3-hydroxy-3-methylcyclobutyl]-5,6,7,8-tetrahydro-1,8-naphthyridin-3-yl}oxy)(1,1,2,2-^2H4)ethyl]-1,2-dihydrospiro[indole-3,4′-piperidin]-2-one], for which the EC50 in assay [1] amounted to 37.8 nM. Moreover, the half-maximal activity concentration (AC50) on APOL1 G2 was 597 nM.

For the compound `C[C@]1(O)C[C@@H](n2cc3cc(OCCN4CCC5(CC4)C(=O)Nc4ccc(Cl)cc45)cc(C(F)(F)F)c3n2)C1` [Compound 427, 5-chloro-1′-[2-({2-[(cis)-3-hydroxy-3-methylcyclobutyl]-7-(trifluoromethyl)-2H-indazol-5-yl}oxy)ethyl]-1,2-dihydrospiro[indole-3,4′-piperidin]-2-one], the EC50 in assay [1] is 18.5 nM. In addition, the AC50 at APOL1 G2 amounted to 708 nM.

Take `C[C@]1(O)C[C@@H](n2cc3cc(OCCN4CCC5(CC4)C(=O)Nc4ccc(C#N)cc45)cc(C(F)(F)F)c3n2)C1` [Compound 428, 2-oxo-1′-[2-({2-[(cis)-3-hydroxy-3-methylcyclobutyl]-7-(trifluoromethyl)-2H-indazol-5-yl}oxy)ethyl]-1,2-dihydrospiro[indole-3,4′-piperidine]-5-carbonitrile]: the EC50 in assay [1] came out at 54.3 nM. In addition, the AC50 at APOL1 G2 turned out to be 1200 nM.

Regarding `C[C@]1(O)C[C@@H](n2cnc3cc(OCCN4CCC5(CC4)C(=O)Nc4ccc(C#N)cc45)cc(C(F)(F)F)c32)C1` [Compound 433, 1′-(2-((1-((cis)-3-hydroxy-3-methylcyclobutyl)-7-(trifluoromethyl)-1H-benzo[d]imidazol-5-yl)oxy)ethyl)-2-oxospiro[indoline-3,4′-piperidine]-5-carbonitrile], the half-maximal effective concentration (EC50) in assay [1] turned out to be 14.8 nM. Further, the AC50 on APOL1 G2 was 1300 nM.

Consider `C[C@]1(O)C[C@@H](n2nnc3cc(OCCN4CCC5(CC4)C(=O)Nc4ccc(Cl)cc45)cc(C(F)(F)F)c32)C1` [Compound 434, 5-chloro-1′-[2-({1-[(cis)-3-hydroxy-3-methylcyclobutyl]-7-(trifluoromethyl)-1H-1,2,3-benzotriazol-5-yl}oxy)ethyl]-1,2-dihydrospiro[indole-3,4′-piperidin]-2-one], for which, in assay [1], the EC50 was 11.2 nM. The AC50 at APOL1 G2 turned out to be 1270 nM.

As for `C[C@]1(O)C[C@@H](n2nnc3cc(OCCN4CCC5(CC4)C(=O)Nc4ccc(C#N)cc45)cc(C(F)(F)F)c32)C1` [Compound 435, 2-oxo-1′-[2-({1-[(cis)-3-hydroxy-3-methylcyclobutyl]-7-(trifluoromethyl)-1H-1,2,3-benzotriazol-5-yl}oxy)ethyl]-1,2-dihydrospiro[indole-3,4′-piperidine]-5-carbonitrile], the half-maximal effective concentration (EC50) in assay [1] came to 12.9 nM. For the same compound, the AC50 on APOL1 G2 is 1170 nM.

For `C[C@]1(O)C[C@@H](n2cnc3cc(OCCN4CCC5(CC4)C(=O)Nc4ccc(Cl)cc45)cc(C#N)c32)C1` [Compound 439, 5-(2-{5-chloro-2-oxo-1,2-dihydrospiro[indole-3,4′-piperidin]-1′-yl}ethoxy)-1-[(cis)-3-hydroxy-3-methylcyclobutyl]-1H-1,3-benzodiazole-7-carbonitrile], the EC50 in assay [1] turned out to be 14.9 nM. Moreover, at APOL1 G2, the AC50 came to 603 nM.

In the case of `C[C@]1(O)C[C@@H](n2nnc3cc(OCCN4CCC5(CC4)C(=O)Nc4ccc(Cl)cc45)cnc32)C1` [Compound 440, 5-chloro-1′-[2-({3-[(cis)-3-hydroxy-3-methylcyclobutyl]-3H-[1,2,3]triazolo[4,5-b]pyridin-6-yl}oxy)ethyl]-1,2-dihydrospiro[indole-3,4′-piperidin]-2-one], in assay [1], the EC50 was 54.4 nM. In addition, the AC50 on APOL1 G2 turned out to be 552 nM.

In the case of `Cc1nc2cc(OCCN3CCC4(CC3)C(=O)Nc3ccc(Cl)cc34)cc(C(F)(F)F)c2n1[C@H]1C[C@@](C)(O)C1` [Compound 442, 5-chloro-1′-[2-({2-methyl-1-[(cis)-3-hydroxy-3-methylcyclobutyl]-7-(trifluoromethyl)-1H-1,3-benzodiazol-5-yl}oxy)ethyl]-1,2-dihydrospiro[indole-3,4′-piperidin]-2-one], the EC50 in assay [1] is under 3.08 nM. Besides, at APOL1 G2, the AC50 came to 2140 nM.

Take `Cc1nc2cc(OCCN3CCC4(CC3)C(=O)Nc3ccc(C#N)cc34)cc(C(F)(F)F)c2n1[C@H]1C[C@@](C)(O)C1` [Compound 443, 1′-[2-({2-methyl-1-[(cis)-3-hydroxy-3-methylcyclobutyl]-7-(trifluoromethyl)-1H-1,3-benzodiazol-5-yl}oxy)ethyl]-2-oxo-1,2-dihydrospiro[indole-3,4′-piperidine]-5-carbonitrile]: in assay [1], the EC50 was found to be 10.2 nM. Besides, at APOL1 G2, the AC50 worked out at 2670 nM.

Turning to `C[C@]1(O)C[C@@H](n2cnc3cc(OCCN4CCC5(CC4)C(=O)Nc4ccc(C(F)F)cc45)cc(C(F)(F)F)c32)C1` [Compound 450, 5-(difluoromethyl)-1′-[2-({1-[(cis)-3-hydroxy-3-methylcyclobutyl]-7-(trifluoromethyl)-1H-1,3-benzodiazol-5-yl}oxy)ethyl]-1,2-dihydrospiro[indole-3,4′-piperidin]-2-one], in assay [1], the EC50 was 5.5 nM. Further, at APOL1 G2, the AC50 came to 2270 nM.

On to `C[C@]1(O)C[C@@H](n2cnc3cc(OCCN4CCC5(CC4)C(=O)Nc4c(I)cc(Cl)cc45)cc(C(F)(F)F)c32)C1` [Compound 453, 5-chloro-7-iodo-1′-[2-({1-[(cis)-3-hydroxy-3-methylcyclobutyl]-7-(trifluoromethyl)-1H-1,3-benzodiazol-5-yl}oxy)ethyl]-1,2-dihydrospiro[indole-3,4′-piperidin]-2-one], for which the EC50 in assay [1] stood at 19.1 nM. For the same compound, the AC50 at APOL1 G2 was 935 nM.

For `C[C@]1(O)C[C@@H](n2cnc3cc(OCCN4CCC5(CC4)C(=O)Nc4ccc(Cl)cc45)cc(F)c32)C1` [Compound 454, 5-chloro-1′-(2-((7-fluoro-1-((cis)-3-hydroxy-3-methylcyclobutyl)-1H-benzo[d]imidazol-5-yl)oxy)ethyl)spiro[indoline-3,4′-piperidin]-2-one], in assay [1], the EC50 is 24.1 nM. At APOL1 G2, the AC50 came to 473 nM.
